Some results are limits rather than exact numbers.

The experiment concerns the target T1, human SARM1(50-724) (Homo sapiens, UniProt Q6SZW1).
T1 construct: 40 nM human SARM1(50-724)
T1 sequence (Q6SZW1 50-724): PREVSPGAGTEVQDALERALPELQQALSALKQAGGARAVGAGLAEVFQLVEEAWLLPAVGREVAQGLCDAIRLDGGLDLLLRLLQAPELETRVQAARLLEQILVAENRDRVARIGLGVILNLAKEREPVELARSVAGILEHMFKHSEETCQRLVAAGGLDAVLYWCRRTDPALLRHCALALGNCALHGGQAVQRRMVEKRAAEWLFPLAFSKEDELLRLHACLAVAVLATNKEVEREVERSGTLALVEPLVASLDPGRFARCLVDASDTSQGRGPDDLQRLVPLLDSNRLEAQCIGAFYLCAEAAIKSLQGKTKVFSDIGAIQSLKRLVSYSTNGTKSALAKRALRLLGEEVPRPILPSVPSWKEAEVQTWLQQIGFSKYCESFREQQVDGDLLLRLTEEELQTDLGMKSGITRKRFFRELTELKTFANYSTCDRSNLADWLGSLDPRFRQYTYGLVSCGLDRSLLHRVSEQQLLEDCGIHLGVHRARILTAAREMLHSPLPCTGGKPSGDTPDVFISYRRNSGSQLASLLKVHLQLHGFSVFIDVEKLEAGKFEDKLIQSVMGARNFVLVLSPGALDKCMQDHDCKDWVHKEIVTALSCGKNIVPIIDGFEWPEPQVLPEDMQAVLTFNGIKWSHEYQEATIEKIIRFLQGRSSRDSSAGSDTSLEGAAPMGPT
Put plainly: SARM1 NADase biochemical assay (HPLC of NAD and NAM). To be noted: 40 nM human SARM1(50-724), 0.3 mM NMN, 20 μM NAD, 60 minutes room temperature; dose-response from 100 μM, 1:3 dilution. The method, boiled down: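 Human SARM1(50-724) at 40 nM with 0.3 mM NMN, 20 μM NAD, 1 mM TCEP in 25 mM HEPES pH 7.4, 10 mM KCl, 10 mM MgCl2, 1% DMSO; 60 min at room temperature, formic acid quench. NAD and NAM quantified by reverse-phase HPLC peak area; single point 50 μM or 1:3 series from 100 μM.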
As usually defined, the IC50 is the point on the concentration scale where inhibition reaches its midpoint. For the molecule `N#Cc1ccc(CCC(=O)Nc2cnn(-c3ccncc3)c2Cl)cc1F` [Example 94, N-(5-Chloro-1-(pyridin-4-yl)-1H-pyrazol-4-yl)-3-(4-cyano-3-fluorophenyl)propanamide], the IC50 was less than 1 µM.

Take `O=C(CCc1ccc(Cl)cc1)Nc1cnn(-c2ccncc2)c1C(F)(F)F` [Example 95, 3-(4-Chlorophenyl)-N-(1-(pyridin-4-yl)-5-(trifluoromethyl)-1H-pyrazol-4-yl)propanamide]: the IC50 is less than 1 µM.

For `O=C(CCc1ccc(Cl)cc1)Nc1[nH]nc(-c2ccncc2)c1Cl` [Example 96, N-(4-Chloro-3-(pyridin-4-yl)-1H-pyrazol-5-yl)-3-(4-chlorophenyl)propanamide], the IC50 was less than 1 µM.

Regarding `O=C(CCc1cc(F)c(Cl)c(F)c1)Nc1[nH]nc(-c2ccncc2)c1Cl` [Example 97, 3-(4-Chloro-3,5-difluorophenyl)-N-(4-chloro-3-(pyridin-4-yl)-1H-pyrazol-5-yl)propanamide], the IC50 is less than 1 µM.

On to `O=C(CCc1ccc(Cl)cc1)Nc1cc(-c2ccncc2)n[nH]1` [Example 98, 3-(4-Chlorophenyl)-N-(3-(pyridin-4-yl)-1H-pyrazol-5-yl)propanamide], for which the IC50 was less than 1 µM.

Regarding `O=C(CCc1ccc2c(c1)OCO2)Nc1cc(-c2ccncc2)n[nH]1` [Example 99, 3-(Benzo[d][1,3]dioxol-5-yl)-N-(3-(pyridin-4-yl)-1H-pyrazol-5-yl)propanamide], the IC50 fell in the range of 1 to 10 µM.

As to `O=C(CCc1cccc(Cl)c1)Nc1cc(-c2ccncc2)n[nH]1` [Example 100, 3-(3-Chlorophenyl)-N-(3-(pyridin-4-yl)-1H-pyrazol-5-yl)propanamide], the IC50 lay in the range of 1 to 10 µM.

Regarding `O=C(CCc1cc(F)c(Cl)c(F)c1)Nc1cc(-c2ccncc2)n[nH]1` [Example 101, 3-(4-Chloro-3,5-difluorophenyl)-N-(3-(pyridin-4-yl)-1H-pyrazol-5-yl)propanamide], the IC50 is less than 1 µM.

`O=C(CCc1cc(F)c(F)c(F)c1)Nc1cc(-c2ccncc2)n[nH]1` [Example 102, N-(3-(Pyridin-4-yl)-1H-pyrazol-5-yl)-3-(3,4,5-trifluorophenyl)propanamide]: the IC50 is less than 1 µM.

On to `N#Cc1ccc(CCC(=O)Nc2cc(-c3ccncc3)n[nH]2)cc1F` [Example 103], for which the IC50 is less than 1 µM.

Regarding `N#Cc1c(F)cc(CCC(=O)Nc2cc(-c3ccncc3)n[nH]2)cc1F` [Example 104, 3-(4-Cyano-3,5-difluorophenyl)-N-(3-(pyridin-4-yl)-1H-pyrazol-5-yl)propanamide], the IC50 is less than 1 µM.

In the case of `Cn1c(NC(=O)CCc2ccc(Cl)cc2)cnc1-c1ccncc1` [Example 105, 3-(4-Chlorophenyl)-N-(1-methyl-2-(pyridin-4-yl)-1H-imidazol-5-yl)propanamide], the IC50 was less than 1 µM.

With `Cc1cnccc1-c1cc(NC(=O)CCc2ccc(Cl)cc2)[nH]n1` [Example 106, 3-(4-Chlorophenyl)-N-(3-(3-methylpyridin-4-yl)-1H-pyrazol-5-yl)propanamide], the IC50 was less than 1 µM.

`Cc1nn(-c2ccncc2)cc1NC(=O)CCc1ccc(Cl)cc1` [Example 107]: the IC50 lay within 1 to 10 µM.

Take `O=C(CCc1ccc(Cl)cc1)Nc1nc(-c2ccncc2)c[nH]1` [Example 108]: the IC50 fell in the range of 1 to 10 µM.

As for `Cc1cnccc1-n1cc(NC(=O)CCc2ccc(Cl)cc2)cn1` [Example 109, 3-(4-Chlorophenyl)-N-(1-(3-methylpyridin-4-yl)-1H-pyrazol-4-yl)propanamide], the IC50 was 1 to 10 µM.

For `Cc1cnccc1-c1n[nH]c(NC(=O)CCc2ccc(Cl)cc2)c1C` [Example 110], the concentration for half-maximal inhibition (IC50) was less than 1 µM.

Take `Cc1cnccc1-c1n[nH]c(NC(=O)CCc2cc(F)c(Cl)c(F)c2)c1C` [Example 111, 3-(4-Chloro-3,5-difluorophenyl)-N-(4-methyl-3-(3-methylpyridin-4-yl)-1H-pyrazol-5-yl)propanamide]: the IC50 is less than 1 µM.

With `Cc1cnccc1-c1n[nH]c(NC(=O)CCc2ccc(C#N)c(F)c2)c1C` [Example 112, 3-(4-Cyano-3-fluorophenyl)-N-(4-methyl-3-(3-methylpyridin-4-yl)-1H-pyrazol-5-yl)propanamide], the IC50 fell in the range of 1 to 10 µM.

For the molecule `Cc1cnccc1-c1n[nH]c(NC(=O)CCc2cc(F)c(C#N)c(F)c2)c1C` [Example 113], the IC50 was 1 to 10 µM.

For `O=C(CCc1ccc(Br)cc1)Nc1cnn(-c2ccncc2)c1` [Example 114, 3-(4-Bromophenyl)-N-(1-(pyridin-4-yl)-1H-pyrazol-4-yl)propanamide], the IC50 was less than 1 µM.

For the molecule `O=C(CCc1ccc(F)cc1)Nc1cnn(-c2ccncc2)c1` [Example 115], the IC50 fell in the range of 1 to 10 µM.

As to `O=C(CCc1ccc(Cl)cc1)Nc1[nH]nc(-c2ccncc2)c1CO` [Example 116, 3-(4-Chlorophenyl)-N-(4-(hydroxymethyl)-3-(pyridin-4-yl)-1H-pyrazol-5-yl)propanamide], the IC50 was less than 1 µM.

Turning to `O=C(CCc1cc(F)c(Cl)c(F)c1)Nc1[nH]nc(-c2ccncc2)c1CO` [Example 117, 3-(4-Chloro-3,5-difluorophenyl)-N-(4-(hydroxymethyl)-3-(pyridin-4-yl)-1H-pyrazol-5-yl)propanamide], the IC50 is less than 1 µM.

For the molecule `O=C(CCc1ccc(Cl)c(F)c1)Nc1[nH]nc(-c2ccncc2)c1CO` [Example 118], the IC50 is less than 1 µM.

On to `O=C(CCc1cc(F)c(F)c(F)c1)Nc1[nH]nc(-c2ccncc2)c1CO` [Example 119], for which the half-maximal inhibitory concentration (IC50) is less than 1 µM.

As to `Cc1c(-c2ccncc2)n[nH]c1NC(=O)C[S+]([O-])c1ccc(Cl)cc1` (centres unmarked) [Example 120, 2-((4-chlorophenyl)sulfinyl)-N-(4-methyl-3-(pyridin-4-yl)-1H-pyrazol-5-yl)acetamide], the IC50 was less than 1 µM.

Take `Cc1c(-c2ccncc2)n[nH]c1NC(=O)CS(=O)(=O)c1ccc(Cl)cc1` [Example 121, 2-((4-chlorophenyl)sulfonyl)-N-(4-methyl-3-(pyridin-4-yl)-1H-pyrazol-5-yl)acetamide]: the IC50 is less than 1 µM.

Regarding `COc1c(-c2ccncc2)n[nH]c1NC(=O)CCc1ccc(Cl)cc1` [Example 122, 3-(4-Chlorophenyl)-N-(4-methoxy-3-(pyridin-4-yl)-1H-pyrazol-5-yl)propanamide], the IC50 was less than 1 µM.

As to `O=C(CCc1ccc(Cl)cc1)Nc1[nH]nc(-c2ccncc2)c1C1CC1` [Example 123, 3-(4-Chlorophenyl)-N-(4-cyclopropyl-3-(pyridin-4-yl)-1H-pyrazol-5-yl)propanamide], the IC50 was less than 1 µM.

For `Cc1c(-c2ccncc2)n[nH]c1NC(=S)CCc1ccc(Cl)cc1` [Example 124, 3-(4-Chlorophenyl)-N-[4-methyl-3-(pyridin-4-yl)-1H-pyrazol-5-yl]propanethioamide], the IC50 was less than 1 µM.

For the molecule `O=C(CCc1ccc(Cl)cc1)Nc1[nH]nc(-c2ccncc2)c1C(F)(F)F` [Example 125, 3-(4-Chlorophenyl)-N-[3-(pyridin-4-yl)-4-(trifluoromethyl)-1H-pyrazol-5-yl]propanamide], the IC50 is less than 1 µM.

Take `O=C(CCc1cccc(Cl)c1)Nc1cnn(-c2ccncc2)c1Cl` [Example 126, N-[5-Chloro-1-(pyridin-4-yl)-1H-pyrazol-4-yl]-3-(3-chlorophenyl)propanamide]: the IC50 lay within 1 to 10 µM.

Take `O=C(CCc1cc(F)c(Cl)c(F)c1)Nc1cnn(-c2ccncc2)c1Br` [Example 127, N-[5-Bromo-1-(pyridin-4-yl)-1H-pyrazol-4-yl]-3-(4-chloro-3,5-difluorophenyl)propanamide]: the IC50 is less than 1 µM.

For `N#Cc1c(F)cc(CCC(=O)Nc2[nH]nc(-c3ccncc3)c2Cl)cc1F` [Example 128], the IC50 is less than 1 µM.

Turning to `N#Cc1ccc(CCC(=O)Nc2[nH]nc(-c3ccncc3)c2Cl)cc1F` [Example 129], the IC50 was less than 1 µM.

Take `Cc1c(-c2ccncc2)n[nH]c1NC(=O)OCc1ccc(Cl)cc1` [Example 130, 4-Chlorobenzyl (4-methyl-3-(pyridin-4-yl)-1H-pyrazol-5-yl)carbamate]: the IC50 is less than 1 µM.

Turning to `Cc1c(-c2ccncc2)n[nH]c1NC(=O)N(C)Cc1ccc(Cl)cc1` [Example 131, 1-(4-Chlorobenzyl)-1-methyl-3-(4-methyl-3-(pyridin-4-yl)-1H-pyrazol-5-yl)urea], the IC50 lay in the range of 1 to 10 µM.

Regarding `Cn1c(-c2ccncc2)cnc1NC(=O)CCc1ccc(Cl)cc1` [Example 132], the concentration for half-maximal inhibition (IC50) was in the range of 1 to 10 µM.

With `CN(C(=O)CCc1ccc(Cl)cc1)c1cnn(-c2ccncc2)c1` [Example 134, 3-(4-Chlorophenyl)-N-methyl-N-(1-(pyridin-4-yl)-1H-pyrazol-4-yl)propanamide], the IC50 lay within 1 to 10 µM.

As to `Cc1c(-c2ccncc2)n[nH]c1NC(=O)C1CC1c1ccc(Cl)cc1` (centres unmarked) [Example 135, 2-(4-Chlorophenyl)-N-(4-methyl-3-(pyridin-4-yl)-1H-pyrazol-5-yl)cyclopropane-1-carboxamide], the IC50 was in the range of 1 to 10 µM.

The record behind these values is patent US12404265B2, “Substituted pyridine derivatives as SARM1 inhibitors” (Nura Bio, Inc., priority 2020, dated 2025).
